The text below walks through data of PubChem BioAssay AID1745844 (Carcinogenic Potency Database (CPDB), 2022).

Each structure is given as a SMILES string. Values joined by “and” are separate entries in the source; they are usually repeats but may differ in a detail not shown here. Identical values can stand only once. Active and inactive are the calls of the source. No rule for the calls is given here.

The series deals with rodent lifetime carcinogenesis bioassay, tumor incidence TD50. As to the kind of experiment: carcinogenic potency in animals, long-term in vivo studies, CPDB compilation (AID 1745844).

With `CCCCNN`, the TD50 by setting is: (mouse, strain Swiss albino, females, in drinking water, site: lung, lesion: adenocarcinoma, dosed 119 weeks, study length 119 weeks) 50.6 mg/kg/day; (mouse, strain Swiss albino, females, in drinking water, site: lung, lesion: adenoma, dosed 119 weeks, study length 119 weeks) 19.3 mg/kg/day; (mouse, strain Swiss albino, females, in drinking water, site: lung, lesion: several types, types named in the paper, dosed 119 weeks, study length 119 weeks) 18.4 mg/kg/day; (mouse, strain Swiss albino, males, in drinking water, site: lung, lesion: adenoma, dosed 100 weeks, study length 100 weeks) 8.4 mg/kg/day; (mouse, strain Swiss albino, males, in drinking water, site: lung, lesion: several types, types named in the paper, dosed 100 weeks, study length 100 weeks) 9.03 mg/kg/day.

On to `C=CCNNCC=C`, for which the carcinogen call runs as follows: (mouse, strain Swiss albino, females, in drinking water, site: liver, lesion: angioma, dosed 83 weeks, study length 83 weeks) “negative (inactive)”; (mouse, strain Swiss albino, females, in drinking water, site: liver, lesion: angiosarcoma, dosed 83 weeks, study length 83 weeks) “negative (inactive)”; (mouse, strain Swiss albino, males, in drinking water, site: liver, lesion: angioma, dosed 82 weeks, study length 82 weeks) “negative (inactive)”. The TD50 (mouse, strain Swiss albino, females, in drinking water, site: liver, lesion: hepatoma, dosed 83 weeks, study length 83 weeks) was 409 mg/kg/day (inactive); the TD50 (mouse, strain Swiss albino, females, in drinking water, site: lung, lesion: adenocarcinoma, dosed 83 weeks, study length 83 weeks) worked out at 78.3 mg/kg/day; the TD50 (mouse, strain Swiss albino, females, in drinking water, site: lung, lesion: adenoma, dosed 83 weeks, study length 83 weeks) amounted to 47.9 mg/kg/day; the TD50 (mouse, strain Swiss albino, females, in drinking water, site: lung, lesion: several types, types named in the paper, dosed 83 weeks, study length 83 weeks) was 33.8 mg/kg/day; the TD50 (mouse, strain Swiss albino, males, in drinking water, site: lung, lesion: adenocarcinoma, dosed 82 weeks, study length 82 weeks) worked out at 60 mg/kg/day; the TD50 (mouse, strain Swiss albino, males, in drinking water, site: lung, lesion: adenoma, dosed 82 weeks, study length 82 weeks) came to 35.4 mg/kg/day. Further, the TD50 (mouse, strain Swiss albino, males, in drinking water, site: lung, lesion: several types, types named in the paper, dosed 82 weeks, study length 82 weeks) is 33.9 mg/kg/day.

On to `Nc1ccc2c(n1)[nH]c1ccccc12`, for which the TD50 reads like this: (mouse, strain CDF1, females, in feed, site: blood vessels, lesion: hemangioendothelial sarcoma, dosed 97 weeks, study length 97 weeks) 381 mg/kg/day; (mouse, strain CDF1, females, in feed, site: liver, lesion: hepatocellular carcinoma, dosed 97 weeks, study length 97 weeks) 44.7 mg/kg/day; (mouse, strain CDF1, females, in feed, site: liver, lesion: several types, types named in the paper, dosed 97 weeks, study length 97 weeks) 35.6 mg/kg/day; (mouse, strain CDF1, females, in feed, site: lung, lesion: adenoma, dosed 97 weeks, study length 97 weeks) 795 mg/kg/day; (mouse, strain CDF1, females, in feed, site: lung, lesion: several types, types named in the paper, dosed 97 weeks, study length 97 weeks) 1150 mg/kg/day; (mouse, strain CDF1, males, in feed, site: blood vessels, lesion: hemangioendothelial sarcoma, dosed 97 weeks, study length 97 weeks) 103 mg/kg/day. Further, the TD50 is 82.6 mg/kg/day (mouse, strain CDF1, males, in feed, site: blood vessels, lesion: several types, types named in the paper, dosed 97 weeks, study length 97 weeks); 352 mg/kg/day (mouse, strain CDF1, males, in feed, site: liver, lesion: hepatocellular adenoma, dosed 97 weeks, study length 97 weeks); 225 mg/kg/day (mouse, strain CDF1, males, in feed, site: liver, lesion: hepatocellular carcinoma, dosed 97 weeks, study length 97 weeks); 122 mg/kg/day (mouse, strain CDF1, males, in feed, site: liver, lesion: several types, types named in the paper, dosed 97 weeks, study length 97 weeks).

On to `C=C1CC[C@H](O)C/C1=C/C=C1\CCC[C@]2(C)[C@@H]([C@H](C)CC[C@@H](O)C(C)(C)O)CC[C@@H]12`, for which the TD50 (rat, strain Slc-Wistar, males, in feed, site: adrenal medulla, lesion: pheochromocytoma, dosed 57 weeks, study length 57 weeks) is 0.803 mg/kg/day. For the setting “rat, strain Slc-Wistar, males, in feed, site: stomach, glandular, lesion: adenocarcinoma, dosed 57 weeks, study length 57 weeks”, the carcinogen call was “negative (inactive)”.

Regarding `Nc1ccc2cc3ccc(N)cc3nc2c1`, the TD50 runs as follows: (mouse, strain B6C3F1, females, in feed, site: any site (literature study), lesion: several types, types named in the paper, dosed 103 weeks, study length 103 weeks) 86.2 mg/kg/day; (mouse, strain B6C3F1, females, in feed, site: liver, lesion: hepatocellular adenoma + hepatocellular carcinoma + neoplastic nodule, dosed 103 weeks, study length 103 weeks) 26.4 mg/kg/day; (mouse, strain B6C3F1, females, in feed, site: liver, lesion: hepatocellular adenoma + hepatocellular carcinoma, dosed 103 weeks, study length 103 weeks) 26.4 mg/kg/day; (mouse, strain B6C3F1, females, in feed, site: lung, lesion: alveolar/bronchiolar adenoma + alveolar/bronchiolar carcinoma, dosed 103 weeks, study length 103 weeks) 487 mg/kg/day; (mouse, strain B6C3F1, males, in feed, site: liver, lesion: hepatocellular adenoma + hepatocellular carcinoma + neoplastic nodule, dosed 103 weeks, study length 103 weeks) 248 mg/kg/day; (rat, strain Fischer 344, males, in feed, site: large intestine + small intestine, lesion: sarcoma, NOS + adenocarcinoma, NOS + leiomyosarcoma, dosed 109 weeks, study length 109 weeks) 213 mg/kg/day. The TD50 amounted to 254 mg/kg/day (rat, strain Fischer 344, males, in feed, site: liver, lesion: hepatocellular adenoma + hepatocellular carcinoma + neoplastic nodule, dosed 109 weeks, study length 109 weeks) and 254 mg/kg/day (rat, strain Fischer 344, males, in feed, site: liver, lesion: hepatocellular carcinoma + neoplastic nodule, dosed 109 weeks, study length 109 weeks).

In the case of `C=CF`, the TD50 is 4010 mg/kg/day (mouse, strain Charles River CD1, females, inhaled, site: Harderian gland, lesion: adenoma, dosed 67 weeks, study length 74 weeks); 25.4 mg/kg/day (mouse, strain Charles River CD1, females, inhaled, site: liver, lesion: hemangiosarcoma, dosed 67 weeks, study length 74 weeks); 54.6 mg/kg/day (mouse, strain Charles River CD1, females, inhaled, site: lung, lesion: alveolar/bronchiolar adenoma, dosed 67 weeks, study length 74 weeks); 54.6 mg/kg/day (mouse, strain Charles River CD1, females, inhaled, site: lung, lesion: several types, types named in the paper, dosed 67 weeks, study length 74 weeks); 13.6 mg/kg/day (mouse, strain Charles River CD1, females, inhaled, site: mammary gland, lesion: adenocarcinoma, dosed 67 weeks, study length 74 weeks); 13.6 mg/kg/day (mouse, strain Charles River CD1, females, inhaled, site: mammary gland, lesion: several types, types named in the paper, dosed 67 weeks, study length 74 weeks). The TD50 was 1000 mg/kg/day (mouse, strain Charles River CD1, males, inhaled, site: Harderian gland, lesion: adenoma, dosed 63 weeks, study length 78 weeks); 19.4 mg/kg/day (mouse, strain Charles River CD1, males, inhaled, site: liver, lesion: hemangiosarcoma, dosed 63 weeks, study length 78 weeks); 34.6 mg/kg/day (mouse, strain Charles River CD1, males, inhaled, site: liver, lesion: hepatocellular adenoma, dosed 63 weeks, study length 78 weeks); 12300 mg/kg/day (mouse, strain Charles River CD1, males, inhaled, site: lung, lesion: alveolar/bronchiolar adenocarcinoma, dosed 63 weeks, study length 78 weeks); 5.78 mg/kg/day (mouse, strain Charles River CD1, males, inhaled, site: lung, lesion: alveolar/bronchiolar adenoma, dosed 63 weeks, study length 78 weeks); 5.78 mg/kg/day (mouse, strain Charles River CD1, males, inhaled, site: lung, lesion: several types, types named in the paper, dosed 63 weeks, study length 78 weeks). Also, the TD50 (rat, strain Charles River CD (Sprague-Dawley), females, inhaled, site: Zymbal's gland, lesion: squamous-cell carcinoma, sebaceous, dosed 52 weeks, study length 52 weeks) was determined as 639 mg/kg/day; the TD50 (rat, strain Charles River CD (Sprague-Dawley), females, inhaled, site: Zymbal's gland, lesion: squamous-cell carcinoma, sebaceous, dosed 78 weeks, study length 78 weeks) is 684 mg/kg/day; the TD50 (rat, strain Charles River CD (Sprague-Dawley), females, inhaled, site: Zymbal's gland, lesion: squamous-cell carcinoma, sebaceous, dosed 93 weeks, study length 103 weeks) was 1470 mg/kg/day; the TD50 (rat, strain Charles River CD (Sprague-Dawley), females, inhaled, site: liver, lesion: hemangiosarcoma, dosed 93 weeks, study length 103 weeks) is 16.6 mg/kg/day; the TD50 (rat, strain Charles River CD (Sprague-Dawley), females, inhaled, site: liver, lesion: hepatocellular adenoma, dosed 93 weeks, study length 103 weeks) was 183 mg/kg/day; the TD50 (rat, strain Charles River CD (Sprague-Dawley), females, inhaled, site: liver, lesion: hepatocellular carcinoma, dosed 78 weeks, study length 78 weeks) came to 1440 mg/kg/day. In addition, the TD50 (rat, strain Charles River CD (Sprague-Dawley), females, inhaled, site: liver, lesion: hepatocellular carcinoma, dosed 93 weeks, study length 103 weeks) worked out at 7770 mg/kg/day; the TD50 (rat, strain Charles River CD (Sprague-Dawley), females, inhaled, site: liver, lesion: several types, types named in the paper, dosed 78 weeks, study length 78 weeks) is 7380 mg/kg/day; the TD50 (rat, strain Charles River CD (Sprague-Dawley), females, inhaled, site: liver, lesion: several types, types named in the paper, dosed 93 weeks, study length 103 weeks) was 183 mg/kg/day; the TD50 (rat, strain Charles River CD (Sprague-Dawley), males, inhaled, site: Zymbal's gland, lesion: squamous-cell carcinoma, sebaceous, dosed 52 weeks, study length 52 weeks) is 213 mg/kg/day; the TD50 (rat, strain Charles River CD (Sprague-Dawley), males, inhaled, site: Zymbal's gland, lesion: squamous-cell carcinoma, sebaceous, dosed 93 weeks, study length 103 weeks) was 1090 mg/kg/day; the TD50 (rat, strain Charles River CD (Sprague-Dawley), males, inhaled, site: liver, lesion: hemangiosarcoma, dosed 93 weeks, study length 103 weeks) is 25 mg/kg/day. Under “rat, strain Charles River CD (Sprague-Dawley), males, inhaled, site: liver, lesion: hepatocellular adenoma, dosed 93 weeks, study length 103 weeks”, this molecule had a TD50 of 200 mg/kg/day.

As to `CCC(CC)[N+](=O)[O-]`, the TD50 was 3.05 mg/kg/day (rat, strain Fischer 344, males, by gavage, site: liver, lesion: hepatocellular carcinoma, dosed 50 weeks, study length 83 weeks) and 2.37 mg/kg/day (rat, strain Fischer 344, males, by gavage, site: liver, lesion: several types, types named in the paper, dosed 50 weeks, study length 83 weeks).

On to `Nc1ccc(Oc2ccc(Cl)cc2)cc1`, for which the TD50 was 346 mg/kg/day (mouse, strain CD-1 HaM/ICR, females, in feed, site: all sites, lesion: all vascular tumors, dosed 68 weeks, study length 86 weeks); 598 mg/kg/day (mouse, strain CD-1 HaM/ICR, females, in feed, site: any site (literature study), lesion: several types, types named in the paper, dosed 68 weeks, study length 86 weeks); 905 mg/kg/day (mouse, strain CD-1 HaM/ICR, females, in feed, site: liver, lesion: several types, types named in the paper, dosed 68 weeks, study length 86 weeks); 1130 mg/kg/day (mouse, strain CD-1 HaM/ICR, females, in feed, site: urinary bladder, lesion: several types, types named in the paper, dosed 68 weeks, study length 86 weeks); 25.1 mg/kg/day (rat, strain Charles River CD (Sprague-Dawley), males, in feed, site: any site (literature study), lesion: several types, types named in the paper, dosed 77 weeks, study length 98 weeks); 37.9 mg/kg/day and 37.6 mg/kg/day (rat, strain Charles River CD (Sprague-Dawley), males, in feed, site: liver, lesion: hepatoma, dosed 77 weeks, study length 98 weeks). In addition, the TD50 (rat, strain Charles River CD (Sprague-Dawley), males, in feed, site: liver, lesion: several types, types named in the paper, dosed 77 weeks, study length 98 weeks) is 37.9 mg/kg/day. Also, the carcinogen call (mouse, strain CD-1 HaM/ICR, males, in feed, site: any site (literature study), lesion: several types, types named in the paper, dosed 51 weeks, study length 55 weeks) was “negative (inactive)”; the carcinogen call (mouse, strain CD-1 HaM/ICR, males, in feed, site: liver, lesion: several types, types named in the paper, dosed 51 weeks, study length 55 weeks) is “negative (inactive)”; the carcinogen call (mouse, strain CD-1 HaM/ICR, males, in feed, site: lung, lesion: several types, types named in the paper, dosed 51 weeks, study length 55 weeks) was “negative (inactive)”.

For the molecule `CC1(C)O[C@@H]2C[C@H]3[C@@H]4CCC5=CC(=O)C=C[C@]5(C)[C@@]4(F)[C@@H](O)C[C@]3(C)[C@]2(C(=O)CO)O1`, the TD50 (rat, strain Charles River CD (Sprague-Dawley), males, in drinking water, site: liver, lesion: hepatocellular adenoma, dosed 104 weeks, study length 104 weeks) was 0.0917 mg/kg/day; the TD50 (rat, strain Charles River CD (Sprague-Dawley), males, in drinking water, site: liver, lesion: hepatocellular carcinoma, dosed 104 weeks, study length 104 weeks) was determined as 0.141 mg/kg/day; the TD50 (rat, strain Charles River CD (Sprague-Dawley), males, in drinking water, site: liver, lesion: several types, types named in the paper, dosed 104 weeks, study length 104 weeks) is 0.053 mg/kg/day.

One may read the TD50 as the dose at which the toxic effect under study appears in half of the subjects.
